Assay results reported in the supplement of paper PMC10307832.

Legend:
Experiment in all cases: relative viability (nuclei count vs DMSO), 5 days (fraction); higher = more cells survive
IU1-47 + Palbociclib = compound: CC1=CC(=C(N1C2=CC=C(C=C2)Cl)C)C(=O)CN3CCCCC3 [IU1-47] + CC(=O)c1c(C)c2cnc(Nc3ccc(N4CCNCC4)cn3)nc2n(C2CCCC2)c1=O [Palbociclib] (partner 0.5 µM)
Method in brief: (§1)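 Lung cancer cell lines were seeded in 1536-well plates and dosed by pin tool the next day, with either a single drug or a fixed anchor-drug dose combined with five library-drug doses (not always all listed) spaced in √10 steps. Five days later, one step fixed the cells and stained their nuclei (final 0.05% Triton X-100, 1% formaldehyde, 1 ug/ml Hoechst), and nuclei were counted on 4× images. Relative viability is the nuclei count in treated wells divided by the count in vehicle wells, and each value is the median of duplicate plates.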

IU1-47 + Alpelisib = compound: CC1=CC(=C(N1C2=CC=C(C=C2)Cl)C)C(=O)CN3CCCCC3 [IU1-47] + Cc1nc(NC(=O)N2CCC[C@H]2C(N)=O)sc1-c1ccnc(C(C)(C)C(F)(F)F)c1 [Alpelisib] (partner 2 µM)
Method in brief: as §1

FG-4592 + Pictilisib = compound: Cc1nc(C(=O)NCC(=O)O)c(O)c2ccc(Oc3ccccc3)cc12 [FG-4592] + CS(=O)(=O)N1CCN(Cc2cc3nc(-c4cccc5[nH]ncc45)nc(N4CCOCC4)c3s2)CC1 [Pictilisib] (partner 1 µM)
Method in brief: as §1

FG-4592 + Pemetrexed = compound: Cc1nc(C(=O)NCC(=O)O)c(O)c2ccc(Oc3ccccc3)cc12 [FG-4592] + Nc1nc2[nH]cc(CCc3ccc(C(=O)N[C@@H](CCC(=O)O)C(=O)O)cc3)c2c(=O)[nH]1 [Pemetrexed] (partner 0.2 µM)
Method in brief: as §1

Cell Line | relative viability (IU1-47 + Palbociclib; first compound 0.08 µM) | relative viability (IU1-47 + Palbociclib; first compound 0.253 µM) | relative viability (IU1-47 + Palbociclib; first compound 0.8 µM) | relative viability (IU1-47 + Palbociclib; first compound 8 µM) | relative viability (IU1-47 + Alpelisib; first compound 0.08 µM) | relative viability (IU1-47 + Alpelisib; first compound 0.253 µM) | relative viability (IU1-47 + Alpelisib; first compound 0.8 µM) | relative viability (IU1-47 + Alpelisib; first compound 2.53 µM) | relative viability (IU1-47 + Alpelisib; first compound 8 µM) | relative viability (FG-4592 + Pictilisib; first compound 0.08 µM) | relative viability (FG-4592 + Pictilisib; first compound 0.253 µM) | relative viability (FG-4592 + Pictilisib; first compound 2.53 µM) | relative viability (FG-4592 + Pictilisib; first compound 8 µM) | relative viability (FG-4592 + Pemetrexed; first compound 2.53 µM) | relative viability (FG-4592 + Pemetrexed; first compound 8 µM) | relative viability (IU1-47 + Palbociclib; first compound 2.53 µM) | relative viability (FG-4592 + Pictilisib; first compound 0.8 µM) | relative viability (FG-4592 + Pemetrexed; first compound 0.08 µM) | relative viability (FG-4592 + Pemetrexed; first compound 0.253 µM) | relative viability (FG-4592 + Pemetrexed; first compound 0.8 µM)
HARA | 0.231 | 0.316 | 0.239 | 0.221 | 1.02 | 1.13 | 0.925 | 1.1 | 0.604 | 0.329 | 0.292 | 0.46 | 0.304 | 0.251 | 0.24 | – | – | – | – | –
NCI-H23 | 0.532 | – | 0.431 | 0.499 | 0.703 | 0.881 | 0.723 | 0.777 | 0.824 | 0.365 | 0.433 | 0.449 | 0.398 | 0.534 | 0.793 | 0.511 | 0.486 | 0.567 | 0.562 | 0.644
LCLC-97TM1 | 0.281 | 0.229 | 0.218 | 0.297 | 0.276 | 0.248 | 0.249 | – | 0.242 | 0.22 | 0.192 | – | 0.169 | 0.145 | 0.171 | – | 0.138 | 0.189 | 0.152 | –
EPLC-272H | 0.315 | 0.338 | 0.289 | 0.336 | 0.888 | 0.834 | 0.859 | – | 0.953 | 0.276 | 0.26 | 0.37 | 0.434 | 0.353 | 0.377 | – | 0.28 | 0.321 | 0.223 | 0.319
NCI-H1915 | 0.561 | 0.513 | 0.539 | 0.528 | 1.07 | 1.11 | 1.13 | – | 1.07 | 0.913 | 0.915 | 0.93 | 0.95 | 0.475 | 0.477 | 0.565 | 0.873 | 0.469 | 0.44 | 0.542
NCI-H2405 | 0.539 | 0.593 | 0.531 | 0.506 | 0.795 | 0.761 | 0.749 | – | 0.768 | – | 0.266 | 0.419 | 0.427 | 0.792 | 0.984 | 0.539 | 0.348 | 0.81 | 1.01 | 0.949
NCI-H322M | 0.489 | 0.551 | 0.487 | 0.494 | 0.802 | 0.82 | 0.805 | 0.755 | 0.831 | 0.379 | 0.481 | 0.512 | 0.583 | 0.546 | 0.63 | 0.537 | 0.481 | – | 0.614 | 0.613
NCI-H2170 | 0.461 | 0.463 | 0.455 | 0.382 | 0.905 | 0.799 | 0.84 | 0.777 | 0.772 | 0.348 | 0.28 | 0.359 | 0.275 | 0.266 | 0.252 | 0.411 | 0.274 | 0.235 | 0.308 | 0.256
NCI-H1395 | 0.58 | 0.569 | 0.631 | 0.567 | 1.07 | 1.01 | 1.04 | – | 0.991 | 0.747 | 0.622 | 0.776 | 0.531 | 0.768 | 0.671 | 0.655 | – | 0.877 | 0.859 | 0.528
NCI-H358 | 0.131 | 0.165 | 0.149 | 0.141 | 0.917 | 0.877 | 0.91 | – | 0.682 | 0.323 | 0.344 | 0.292 | 0.326 | 0.176 | 0.179 | 0.112 | 0.289 | 0.169 | 0.165 | 0.164
NCI-H838 | 0.181 | 0.222 | 0.225 | 0.236 | 1.04 | 1.03 | 1.05 | 1.08 | 0.859 | 0.481 | 0.396 | 0.494 | 0.433 | 0.244 | 0.253 | 0.232 | 0.363 | 0.257 | 0.279 | 0.227
CAL-12T | 0.402 | 0.306 | 0.413 | 0.324 | 1.31 | 1.39 | 1.47 | 1.18 | 0.823 | 0.516 | 0.494 | 0.555 | 0.523 | 0.974 | 1.04 | 0.508 | 0.221 | 1.21 | 1.3 | 1.3
